Data reported in patent US11180462B2, “Microbiocidal oxadiazole derivatives” (SYNGENTA PARTICIPATIONS AG, priority 2015, dated 2021).

Legend:
[1] = tested on: Puccinia recondita f. Sp. Tritici; test: Fungicidal activity against Puccinia recondita f. sp. tritici / wheat / leaf disc preventative (brown rust); type: in vivo; details: foliar, 200 ppm in the applied formulation, wheat leaf segments, preventative, compared to untreated control leaf disks, read-out: disease control
Procedure, shortened: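 200 ppm spray on wheat cv. Kanzler leaf segments; spore inoculation +1 day; 19° C., 75% rh, 12 h/12 h light cycle; single rating of % control vs untreated at 7 to 9 days.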

[2] = tested on: Puccinia recondita f. Sp. Tritici; test: Fungicidal activity against Puccinia recondita f. sp. tritici / wheat / leaf disc curative (brown rust); type: in vivo; details: foliar, 24 h, 200 ppm in the applied formulation, wheat leaf segments, curative (applied 1 day after inoculation), compared to untreated control leaf disks, read-out: disease control
Procedure, shortened: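 Inoculate cv. Kanzler segments on agar; hold dark, 19° C, 75% RH. Spray diluted formulated compound at day 1. Incubate 12 h light/12 h dark, same temperature and humidity; score % control vs untreated 6–8 days later.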

[3] = tested on: Phakopsora Pachyrhizi; test: Fungicidal activity against Phakopsora pachyrhizi / soybean / leaf disc preventative (Asian soybean rust); type: in vivo; details: foliar, 200 ppm in the applied formulation, soybean leaf disks, compared to untreated control leaf disks, read-out: disease control
Procedure, shortened: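 Scored 12 to 14 days post-application as percent control relative to untreated check discs, rust spores were sprayed under the disc one day after compound treatment. Incubation: 20°C, 75% rh, first 24–36 h in darkness, then 12 h daily light; discs kept on water agar.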

[4] = tested on: Glomerella lagenarium (Colletotrichum lagenarium); test: Fungicidal activity against Glomerella lagenarium (Colletotrichum lagenarium) liquid culture / cucumber / preventative (anthracnose); type: cell-based; details: Colletotrichum orbiculare; 20 ppm in the applied formulation; liquid culture (PDB), growth inhibition measured photometrically after 3 to 4 days; compared to untreated control; read-out: disease control
Procedure, shortened: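 Percent activity against the untreated check was derived from photometric growth measurements made 2 to 7 days after conidia in potato dextrose broth were combined with compound at 20 ppm. Cultures were kept dark at 24 °C and 96% humidity.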

COC(C)(C)C(=O)N(C)Cc1ccc(-c2noc(C(F)(F)F)n2)cc1 [Compound 1.782, 2-methoxy-N,2-dimethyl-N-[[4-[5-(trifluoromethyl)-1,2,4-oxadiazol-3-yl]phenyl]methyl]-propanamide]
≥ 80%: pest or weed control at 200 ppm [1] | pest or weed control at 200 ppm [2] | pest or weed control at 200 ppm [3] | inhibition of growth at 20 ppm [4]

O=C(C1CCCC1)N(Cc1ccc(-c2noc(C(F)(F)F)n2)cc1)C1CC1 [Compound 1.100, N-cyclopropyl-N-[[4-[5-(trifIuoromethyl)-1,2,4-oxadiazol-3-yl]phenyl]methyl]-cyclopentane-carboxamide]
≥ 80%: pest or weed control at 200 ppm [1] | pest or weed control at 200 ppm [2] | pest or weed control at 200 ppm [3] | inhibition of growth at 20 ppm [4]

CCCNC(=O)N(Cc1ccc(-c2noc(C(F)(F)F)n2)cc1)OC [Compound 3.21, 1-methoxy-3-propyl-1-[[4-[5 - (trifluoromethyl)-1,2,4-oxadiazol-3-yl]phenyl]methyl]urea]
≥ 80%: pest or weed control at 200 ppm [1] | pest or weed control at 200 ppm [2] | pest or weed control at 200 ppm [3] | inhibition of growth at 20 ppm [4]

C#CCN(Cc1ccc(-c2noc(C(F)(F)F)n2)cc1)C(=O)c1ccccc1 [Compound 1.202, N-prop-2-ynyl-N-[[4-[5-(trifluoromethyl)-1,2,4-oxadiazol-3-yl]phenyl]methyl]-benzamide]
≥ 80%: pest or weed control at 200 ppm [1] | pest or weed control at 200 ppm [2] | pest or weed control at 200 ppm [3] | inhibition of growth at 20 ppm [4]

COCCN(Cc1ccc(-c2noc(C(F)(F)F)n2)cc1)C(=O)CC1CC1 [Compound 1.331, 2-cyclopropyl-N-(2-methoxyethyl)-N-[[4-[5-(trifluoromethyl)-1,2,4-oxadiazol-3-yl]phenyl]methyl]-acetamide]
≥ 80%: pest or weed control at 200 ppm [1] | pest or weed control at 200 ppm [2] | pest or weed control at 200 ppm [3] | inhibition of growth at 20 ppm [4]

CCC(C)N(Cc1ccc(-c2noc(C(F)(F)F)n2)cc1)C(=O)C1(C#N)CC1 (centres unmarked) [Compound 1.399, 1-cyano-N-sec-butyl-N-[[4-[5-(trifluoromethyl)-1,2,4-oxadiazol-3-yl]phenyl]methyl]-cyclopropane-carboxamide]
≥ 80%: pest or weed control at 200 ppm [1] | pest or weed control at 200 ppm [2] | pest or weed control at 200 ppm [3] | inhibition of growth at 20 ppm [4]

CCC(C)C(=O)N(Cc1ccc(-c2noc(C(F)(F)F)n2)cc1)C(C)C (centres unmarked) [Compound 1.678, N-isopropyl-2-methyl-N-[[4-[5-(trifluoromethyl)-1,2,4-oxadiazol-3-yl]phenyl]methyl]-butanamide]
≥ 80%: pest or weed control at 200 ppm [1] | pest or weed control at 200 ppm [2] | pest or weed control at 200 ppm [3] | inhibition of growth at 20 ppm [4]

COCCN(Cc1ccc(-c2noc(C(F)(F)F)n2)cc1)C(=O)C(C)OC (centres unmarked) [Compound 1.359, 2-methoxy-N-(2-methoxyethyl)-N-[[4-[5-(trifluoromethyl)-1,2,4-oxadiazol-3-yl]phenyl]methyl]-propanamide]
≥ 80%: pest or weed control at 200 ppm [1] | pest or weed control at 200 ppm [2] | pest or weed control at 200 ppm [3] | inhibition of growth at 20 ppm [4]

COCCN(Cc1ccc(-c2noc(C(F)(F)F)n2)cc1)C(=O)C1(C)CC1 [Compound 1.344, N-(2-methoxyethyl)-1-methyl-N-[[4-[5-(trifluoromethyl)-1,2,4-oxadiazol-3-yl]phenyl]methyl]-cyclopropane-carboxamide]
≥ 80%: pest or weed control at 200 ppm [1] | pest or weed control at 200 ppm [2] | pest or weed control at 200 ppm [3] | inhibition of growth at 20 ppm [4]

O=C(CC(F)(F)F)N(Cc1ccc(-c2noc(C(F)(F)F)n2)cc1)C1COC1 [Compound 1.751, 3,3,3-trifluoro-N-(oxetan-3-yl)-N-[[4-[5-(trifluoromethyl)-1,2,4-oxadiazol-3-yl]phenyl]methyl]-propanamide]
≥ 80%: pest or weed control at 200 ppm [1] | pest or weed control at 200 ppm [2] | pest or weed control at 200 ppm [3] | inhibition of growth at 20 ppm [4]

COC(C)C(=O)N(Cc1ccc(-c2noc(C(F)(F)F)n2)cc1)CC(F)(F)F (centres unmarked) [Compound 1.703, 2-methoxy-N-(2,2,2-trifluoroethyl)-N-[[4-[5-(trifluoromethyl)-1,2,4-oxadiazol-3-yl]phenyl]methyl]-propanamide]
≥ 80%: pest or weed control at 200 ppm [1] | pest or weed control at 200 ppm [2] | pest or weed control at 200 ppm [3] | inhibition of growth at 20 ppm [4]

COC(C)C(=O)N(Cc1ccc(-c2noc(C(F)(F)F)n2)cc1)C1CC1 (centres unmarked) [Compound 1.147, N-cyclopropyl-2-methoxy-N-[[4-[5-(trifluoromethyl)-1,2,4-oxadiazol-3-yl]phenyl]methyl]-propanamide]
≥ 80%: pest or weed control at 200 ppm [1] | pest or weed control at 200 ppm [2] | pest or weed control at 200 ppm [3] | inhibition of growth at 20 ppm [4]

CON(Cc1ccc(-c2noc(C(F)(F)F)n2)cc1)C(=O)C1CCC1 [Compound 1.38, N-methoxy-N-[[4-[5-(trifluoromethyl)-1,2,4-oxadiazol-3-yl]phenyl]methyl]-cyclobutane-carboxamide]
≥ 80%: pest or weed control at 200 ppm [1] | pest or weed control at 200 ppm [2] | pest or weed control at 200 ppm [3] | inhibition of growth at 20 ppm [4]

CON(Cc1ccc(-c2noc(C(F)(F)F)n2)cc1)C(=O)CC(C)C [Compound 1.34, N-methoxy-3-methyl-N-[[4-[5-(trifluoromethyl)-1,2,4-oxadiazol-3-yl]phenyl]methyl]-butanamide]
≥ 80%: pest or weed control at 200 ppm [1] | pest or weed control at 200 ppm [2] | pest or weed control at 200 ppm [3] | inhibition of growth at 20 ppm [4]

C#CCN(Cc1ccc(-c2noc(C(F)(F)F)n2)cc1)C(=O)CCC [Compound 1.165, N-prop-2-ynyl-N-[[4-[5-(trifluoromethyl)-1,2,4-oxadiazol-3-yl]phenyl]methyl]-butanamide]
≥ 80%: pest or weed control at 200 ppm [1] | pest or weed control at 200 ppm [2] | pest or weed control at 200 ppm [3] | inhibition of growth at 20 ppm [4]

CCCON(Cc1ccc(-c2noc(C(F)(F)F)n2)cc1)C(=O)C(C)OC (centres unmarked) [Compound 1.316, 2-methoxy-N-propoxy-N-[[4-[5-(trifluoromethyl)-1,2,4-oxadiazol-3-yl]phenyl]methyl]-propanamide]
≥ 80%: pest or weed control at 200 ppm [1] | pest or weed control at 200 ppm [2] | pest or weed control at 200 ppm [3] | inhibition of growth at 20 ppm [4]

CCC(C)N(Cc1ccc(-c2noc(C(F)(F)F)n2)cc1)C(=O)C(C)OC (centres unmarked) [Compound 1.402, 2-methoxy-N-sec-butyl-N-[[4-(5-(trifluoromethyl)-1,2,4-oxadiazol-3-yl]phenyl]methyl]-propanamide]
≥ 80%: pest or weed control at 200 ppm [1] | pest or weed control at 200 ppm [2] | pest or weed control at 200 ppm [3] | inhibition of growth at 20 ppm [4]

CN(C(=O)C1CC1)C(C#N)c1ccc(-c2noc(C(F)(F)F)n2)cc1 (centres unmarked) [Compound 1.612, N-[cyano-[4-[5-(trifluoromethyl)-1,2,4-oxadiazol-3-yl]phenyl]methyl)-N-methyl-cyclopropane-carboxamide]
≥ 80%: pest or weed control at 200 ppm [1] | pest or weed control at 200 ppm [2] | pest or weed control at 200 ppm [3] | inhibition of growth at 20 ppm [4]

C#CCN(Cc1ccc(-c2noc(C(F)(F)F)n2)cc1)C(=O)C(C)C [Compound 1.155, 2-methyl-N-prop-2-ynyl-N-[[4-[5-(trifluoromethyl)-1,2,4-oxadiazol-3-yl]phenyl]methyl]-propanamide]
≥ 80%: pest or weed control at 200 ppm [1] | pest or weed control at 200 ppm [2] | pest or weed control at 200 ppm [3] | inhibition of growth at 20 ppm [4]

C#CCN(Cc1ccc(-c2noc(C(F)(F)F)n2)cc1)C(=O)C1(C(F)(F)F)CC1 [Compound 1.151, N-prop-2-ynyl-1-(trifluoromethyl)-N-[[4-[5-(trifIuoromethyl)-1,2,4-oxadiazol-3-yl]phenyl]methyl]-cyclopropane-carboxamide]
≥ 80%: pest or weed control at 200 ppm [1] | pest or weed control at 200 ppm [2] | pest or weed control at 200 ppm [3] | inhibition of growth at 20 ppm [4]
